“And” between values parts separate entries of the source, which are not always exact repeats. Identical values can stand only once. “Also recorded” adds a separate entry of the source.
Columns and labels:
[1] = test system: nerve cells in CA1, dentate gyrus and entorhinal cortex; assay: Animal model for dementia (ibotenic acid into entorhinal cortex), calbindin-positive neuron count; assay type: in vivo, rat
Method: After white rat brain was fixed with a stereotaxic frame, 1.5 μl (1 mg/ml) of ibotenic acid and PBS, or 1.5 μl (1 mg/ml) of berberine was injected into the entorhinal cortex region using a microinjector to prepare a model for dementia. […]
Brain was fixed with 4% paraformaldehyde and cryosected to a thickness of 40 μm, and then the cryosected brain was permeablized with 0.5% Triton X-100 for 20 minutes and blocked using 15% blocking serum for 2 hours. After reacting with anti-calbindin antibody at a temperature 4° C. for 16 hours and then further reacting with FITC-labeled secondary antibody or rhodamin (TRITC)-labeled secondary antibody for 1 hour, the cells were fixed on a slide before examining under a confocal microscope.
As an animal model for dementia, ibotenic acid was microinjected into the entorhinal cortex of adult rat brain using a stereotaxic frame.
First, an adult rat was anesthetized, and its head was fixed with a stereotaxic frame. Subsequently, 1.5 μl (1 mg/ml) of ibotenic acid was injected into the entorhinal cortex region to prepare a model for dementia, and then berberine was injected into the same site. 2 weeks after operation, brain tissue sections were counter-stained with hematocylin to examine apoptosis and protective effect. After fluorescence-staining the cells, regions used for cell count were represented as squares (FIG. 14). In addition, the cells were fluorescence-stained with calbindin antibody, a nerve-specific marker, to examine nerve cell survival (see, Tables 8 to 10, FIGS. 11 and 12).

HiB5 cells [2] = test system: HiB5 cells
Method: Since HiB5 cells derived from white rat embryonic hippocampus were prepared by retroviral infection of temperature sensitive SV40 large T antigen, they divided at […], but the cell division stopped at 39° C. (body temperature of rat). […] Cell culture medium was prepared by adding a mixture of 10% FBS (fetal bovine serum), penicillin/streptomycin, glutamine and sodium pyruvate (0.11 g/L) to DMEM. On differentiating at 39° C., another cell culture medium was prepared by adding pyruvate to a serum-free medium (N2, containing DMEM/F12, insulin, transferrin, Putreseine and BSA; Botten Stein & Sato., 1979). PC12 cells and SH-SY5Y cells were cultured in DMEM supplemented with 10% FBS. In order to differentiate the cells, NGF or retinoic acid was added to a serum-free medium.
(§1) Cell injuries under condition of serum deprivation-induced stress and oxidative stress were measured by MTT assay. For MTT assay, Cells were seeded into N2 medium in an amount of 7.5×10^3 cells, and then a neurotoxin or a nerve growth factor was added thereto to differentiate the cells and then 0.1 volume of 4 mg/ml MTT was further added. The mixture was stored at 37° C. for 3-4 hours. After 100 μl of solubilization buffer was added to the mixture and then stored for 24 hours, O.D. values were measured by ELISA assay.
HiB5 cell line used in this experiment was prepared by infecting primary cultured cells of temperature sensitive SV40 large T antigen in rat embryonic hippocampus (embryonic day 16) using retroviral vectors. The HiB5 cell line was divided at the permissive temperature (32° C.), but the cell division stopped at the non-permissive temperature (body temperature of rat: 39° C.). A small number of GABAegic neurons differentiated in the rat embryonic hippocampus (embryonic day 16), and glutamatergic pyramidal cell precursors still divided, some of which penetrated into dentate gyrus regions through dentate migration pathways in embryonic day 18 to differentiate into glutamatergic granule cells (Altman J., Bayer. S. A. (1990a) Prolonged sojourn of developing pyramidal cells in the intermediate zone of the hippocampus and their settling in the stratum pyramidale. J Comp Neurol. 301, 343-64.; Altman J., Das G. D. (1965) Post-natal origin of microneurones in the rat brain, Nature. 28, 953-956.). When cells stop their cell-division and start to differentiate in vivo, apoptosis occurs.
In order to evaluate the protective effect of berberine against apoptosis and the effect of increasing cell survival, HiB5 cells were cultured under conditions for initiation of differentiation. At this time, the culture was treated with berberine at various concentrations (50 ng/ml˜6 μg/ml). The protective effect of berberine against apoptosis was measured by MTT assay. A positive control group was treated with bFGF to block apoptosis, increase cell survival and induce the differentiation into nerve cells.
Since HiB5 neuronal stem cells undergo cell death during the differentiation, the cells were considered as a negative control group. The percentage of O.D. values is determined for the groups treated with bFGF and berberine, respectively.

HiB5 cells [3] = assay: Induction of differentiation of HiB5 cells into nerve cells (neurite count, confocal); assay type: cell-based, white rat; conditions: HiB5, bFGF positive control
Method: (§2) Thereafter, the culture was treated with berberine and further cultured for 2 days. The cultured cells were immunostained with nerve cell-specific labeled molecule, and then the number of cells having neurites longer than cell bodies was counted under a confocal microscope. A positive control was treated with bFGF under the same condition as described above to induce the differentiation into nerve cells. In addition, the neuroregenerative effect was examined after berberine together with bFGF was treated. The differentiation degree was measured by double-staining neurites with nerve cell-specific labeled molecule (anti-neurofilament antibody) and FITC-labeled secondary antibody (green), followed by staining cell nuclei with propidium iodide (red).

PC12 cells [4] = assay: MTT assay, PC12 survival under dexamethasone (glucocorticoid) stress; assay type: cell-based, rat
Method: as §1
Glucocorticoids are hormones secreted from the adrenal glands, and involve in a variety of metabolic processes including glycometabolism. In particular, stress causes release of glucocorticoids to reduce cell divisions of neuronal stem cells in the brain and induce apoptosis of nerve cells. Therefore, PC12 cells were treated with dexamethasone, a glucocorticoid derivative, to examine the effect of berberine against apoptosis of nerve cells. 3 hours after treatment with berberine, dexamethasone (1) was added to a culture solution and incubated for 2 days to induce neuroregeneration (see, Table 5 and FIG. 5b).

SH-SY5Y cells [5] = assay: MTT assay, SH-SY5Y survival under oxidative stress (H2O2); assay type: cell-based, human
Method: SH-SY5Y cells were treated with H2O2 for 30 minutes to induce cell injuries. 3 hours before the cells were treated with H2O2, berberine (0.25˜3.5 μg) was added to cell culture to examine its cell protection effect (see, Table 4 and FIG. 4b).

SH-SY5Y cells [6] = assay: MTT assay, SH-SY5Y survival under serum deprivation-induced stress; assay type: cell-based, human; conditions: N2 + retinoic acid 5 μM
Method: as §1
In order to prepare a stroke-like cell model using SH-SY5Y, the cells were cultured under serum deprivation. […] Retinoic acid, which induces the differentiation of SH-SY5Y as a cell differentiation factor, was used as a positive control. 3 hours before depriving serum, the cells were treated with berberine (0.25˜3 μg). The cells were cultured in chemically defined media (N2) for 2 days to induce nerve regeneration (see, Table 2 and FIG. 4a).

SH-SY5Y cells [7] = assay: Neurite regeneration in SH-SY5Y cells; assay type: cell-based, human; conditions: retinoic acid
Method: as §2, with “(red). In order to examine the effect of berberine on neurite regeneration, SH-SY5Y cells were used as differentiated nerve cell lines. Retinoic acid inducing neurite growth was used as a positive control.” for “(red).”

[8] = test system: nerve cells highly sensitive to NMDA receptors; conditions: MK-801 to young rat (7-8-days old); cited from earlier work
PC12 cells [9] = assay: MTT assay, PC12 survival under serum deprivation-induced stress; assay type: cell-based, rat; conditions: RPMI + NGF 100 ng/ml
Method: as §1
NGF, increasing cell survival and inducing cell differentiation, was used as a positive control. After the cells were treated with berberine (0.25˜3 μg/ml), the cells were cultured for 2 days to induce nerve regeneration (see, Table 3 and FIG. 5a).

[10] = Ibotenic Acid alone (reference)
[11] = N2 + dexamethasone + NGF 100 ng/ml

N[C@H](C(=O)O)c1cc(=O)[nH]o1 [Ibotenic Acid, ibotenic acid, reference compound]
cell number relative to Ibotenic Acid average = 100, CA (individual animals #1-#3) ([1]; Ibotenic Acid alone): 116 and 112 and 73 | cell number relative to Ibotenic Acid average = 100, DG (individual animals #1-#3) ([1]; Ibotenic Acid alone): 123 and 105 and 72 | cell number relative to Ibotenic Acid average = 100, ENT (individual animals #1-#3) ([1]; Ibotenic Acid alone): 100 and 105 and 94 | cell number, CA (individual animals #1-#3) ([1]; Ibotenic Acid alone): 57 and 55 and 36 | cell number, CA, AVR ([1]; Ibotenic Acid alone): 49.3 | cell number, DG (individual animals #1-#3) ([1]; Ibotenic Acid alone): 227 and 193 and 133 | cell number, DG, AVR ([1]; Ibotenic Acid alone): 184.3 | cell number, ENT (individual animals #1-#3) ([1]; Ibotenic Acid alone): 73 and 77 and 68 | cell number, ENT, AVR ([1]; Ibotenic Acid alone): 72.7 | cell number (%) relative to Ibotenic Acid, CA, average [1, 10]: 100% | cell number (%) relative to Ibotenic Acid, DG, average [1, 10]: 100% | cell number (%) relative to Ibotenic Acid, ENT, average [1, 10]: 100% | reduction of calbindin-positive neurons in the hippocampus and entorhinal cortex ([1]; ibotenic acid alone, 2 weeks after microinjection): 30˜40% | calbindin-positive neurons, recovery ([1]; ibotenic acid alone, 4 weeks after microinjection): recovered somewhat; also recorded: some of them were recovered

bFGF: basic fibroblast growth factor, positive control increasing HiB5 survival and differentiation
cell survival rate / protective effect against apoptosis, increase over control (HiB5 cells [2]; HiB5 under differentiation conditions, MTT): 1.5 times and 1.6 times | O.D. % (HiB5 cells [2]; bFGF 20 ng, control = 100): 150% | differentiation into nerve cells (morphology) (HiB5 cells [3]): induced the differentiation into nerve cells; also recorded: cell bodies got smaller and neurites got longer

C[C@@H]1C[C@H]2[C@@H]3CCC4=CC(=O)C=C[C@]4(C)[C@@]3(F)[C@@H](O)C[C@]2(C)[C@@]1(O)C(=O)CO [Dexamethasone, dexamethasone, reference compound]
O.D. (PC12 cells [4]; N2 + dexamethasone 1 μM alone): 0.193 | Average (O.D. relative to dexamethasone alone) (PC12 cells [4]; N2 + dexamethasone 1 μM alone (reference = 100%; N2 = 118%)): 100%

OO [H2O2, reference compound]
O.D. (SH-SY5Y cells [5]; N2, H2O2 150 μM alone): 0.056 | Average (O.D. relative to H2O2 alone) (SH-SY5Y cells [5]; N2, H2O2 150 μM alone (reference = 100%; N2 without H2O2 = 429%)): 100%

CC1=C(/C=C/C(C)=C/C=C/C(C)=C/C(=O)O)C(C)(C)CCC1 [Retinoic acid, reference compound]
O.D. (SH-SY5Y cells [6]; 2 days): 0.871. | Average (O.D. relative to N2) (SH-SY5Y cells [6]; N2 = 100%): 130% | Number of differentiated cells (SH-SY5Y cells [7]; N2 = 22.30): 18.91 | total average cell numbers (SH-SY5Y cells [7]; N2 = 42.33): 24.75 | Average (%) of differentiated cells (SH-SY5Y cells [7]; N2 = 44.47): 81.59% | Average (O.D. relative to H2O2 alone) (SH-SY5Y cells [5]; N2, H2O2 + retinoic acid 5 μM): 321% | O.D. (SH-SY5Y cells [5]; N2, H2O2 + retinoic acid 5 μM): 0.179

MK-801
number of dead nerve cells, of total nerve cells [8]: 12-26%

NGF: nerve growth factor, positive control in PC12 cells
O.D. (PC12 cells [9]; 2 days): 0.349 | Average (O.D. relative to RPMI) (PC12 cells [9]; RPMI = 100%): 208% | Average (O.D. relative to dexamethasone alone) (PC12 cells [4]; [11]): 147% | O.D. (PC12 cells [4]; [11]): 0.283 | cell survival rate increase (PC12 cells [4]; dexamethasone stress, 2 days): about 1.5 times

— US20040097534A1, “Composition for the protection and regeneration of nerve cells containing berberine derivatives” (EUGENBIO INC., priority 2001, published 2004)
